# Patent US20250144067A1, “PERSONALIZED STARVATION THERAPY FOR CANCER” (Faeth Therapeutics, Inc., priority 2021, published 2025)
# Where a name gives a salt, the structure may show the parent alone.
# Tests used:
# [1] = test system: NCI-H292 lung cancer cells; experiment: FDA drug screening, complete media vs cholesterol-free media with simvastatin (TABLE 2); format: cell-based, human; settings: for Complete Media / Cholesterol-free media + simvastatin (0.04 μM): NCI-H292 cells
# [2] = test system: NCI-H292 lung cancer cells; experiment: FDA drug screening, complete media vs cholesterol-free media without statin (TABLE 1); format: cell-based, human
# [3] = Complete minus Cholesterol-free, […]
# [4] = NCI-H292 cells, cholesterol-free media without statin
# [5] = cholesterol-free media with simvastatin 0.04 μM, cell growth value in FDA drug screen
# [6] = complete media, cell growth value in FDA drug screen
# [7] = complete media minus cholesterol-free media + simvastatin, >0 enhanced anti-cancer activity, about 0 neutral, <0 antagonist
# [8] = NCI-H292 cells, cholesterol-free media without statin, FDA drug library screen
# [9] = NCI-H292 cells, complete media, FDA drug library screen
# [10] = complete vs cholesterol-free media, >0 enhanced anti-cancer activity, about 0 neutral, <0 antagonist
# [11] = drug in cholesterol-free media with simvastatin 0.04 μM
# [12] = complete media vs cholesterol-free media + simvastatin (0.04 μM), >0 enhanced anti-cancer activity, about 0 neutral, <0 antagonist
# [13] = Complete minus Cholesterol-free, greater than 0 enhanced anti-cancer activity, about 0 neutral, below 0 antagonists
# [14] = NCI-H292 cells in cholesterol-free media without statin
# [15] = NCI-H292 cells in complete media
# [16] = complete vs cholesterol-free media, greater than 0 enhanced anti-cancer activity, about 0 neutral, below 0 antagonists
# [17] = FDA drug library screen, cholesterol-free media with simvastatin 0.04 μM
# [18] = FDA drug library screen, complete media
# [19] = NCI-H292 cells, FDA drug library screen, cholesterol-free media without statin
# [20] = NCI-H292 cells, FDA drug library screen, complete media
Compound,"Cholesterol-free [2, 4]","Complete ([2]; NCI-H292 cells, complete media)","Difference [1, 7]","Difference [1, 12]","Difference [2, 16]","Cholesterol-free media + simvastatin (0.04 μM) [1, 17]","Complete Media [1, 18]",further results
Carbasalate calcium,1.087,0.8754,–,–,–,–,–,"Complete Media ([1]; complete media, […]): 1.129; Difference ([1]; complete media minus cholesterol-free media + simvastatin, […]): 0.02; Difference [2, 3]: −0.21"
O=C(CCCN1CCC(O)(c2ccc(Cl)cc2)CC1)c1ccc(F)cc1 [Haloperidol],–,–,0.03,–,–,–,–,"Cholesterol-free media + simvastatin (0.04 μM) [1, 5]: 0.8115; Complete Media [1, 6]: 0.843; Cholesterol-free [2, 8]: 0.4782; Complete [2, 9]: 0.7598; Difference [2, 10]: 0.28"
Cc1cccc(N(C)C(=S)Oc2ccc3ccccc3c2)c1 [Tolnaftate],–,–,–,−0.18,–,–,–,"Cholesterol-free media + simvastatin (0.04 μM) [1, 11]: 1.419; Complete Media ([1]; drug in complete media): 1.24; Difference [2, 13]: −0.53; Cholesterol-free [2, 14]: 1.723; Complete [2, 15]: 1.191"
c1ccc2c(c1)Sc1ccccc1N2CC1CN2CCC1CC2 (centres unmarked) [Mequitazine],1.704,1.338,0.13,–,−0.37,–,–,"Cholesterol-free media + simvastatin (0.04 μM) [1, 5]: 0.8559; Complete Media [1, 6]: 0.9842"
O=C1C(O)=C([C@H]2CC[C@H](c3ccc(Cl)cc3)CC2)C(=O)c2ccccc21 [Atovaquone],–,–,0.17,–,–,1.327,1.493,"Cholesterol-free [2, 8]: 0.9543; Complete [2, 9]: 1.102; Difference [2, 10]: 0.15"
Bedaquiline (fumarate),1.587,1.119,0.07,–,−0.47,–,–,"Cholesterol-free media + simvastatin (0.04 μM) [1, 5]: 0.9095; Complete Media [1, 6]: 0.9785"
O=C1NCC2(CCN(CCc3ccccc3)CC2)O1 [Fenspiride (Hydrochloride)],–,–,–,−0.19,–,–,–,"Cholesterol-free media + simvastatin (0.04 μM) [1, 11]: 1.105; Complete Media ([1]; drug in complete media): 0.9138; Cholesterol-free [2, 8]: 0.597; Complete [2, 9]: 0.752; Difference [2, 10]: 0.15"
C[C@H](CCC(=O)O)[C@H]1CC[C@H]2[C@@H]3C[C@H](O)[C@@H]4C[C@H](O)CC[C@]4(C)[C@H]3CC[C@]12C [Hyodeoxycholic acid],1.462,1.016,0.24,–,−0.45,0.7549,0.9966,–
Cc1cc2ncc(C(=O)NCC(C)(C)NCC(=O)N3CCC[C@H]3C#N)cn2n1 [Anagliptin],1.234,1.003,–,−0.12,–,1.09,0.9692,"Difference ([2]; Complete minus Cholesterol-free, >0 enhanced anti-cancer activity, about 0 neutral, <0 antagonist): −0.23"
COc1cccc2c1C(=O)c1c(O)c3c(c(O)c1C2=O)C[C@@](O)(C(=O)CO)C[C@@H]3O[C@H]1C[C@H](N)[C@H](O[C@@H]2CCCCO2)[C@H](C)O1 [Pirarubicin (Hydrochloride)],–,–,–,–,–,–,–,"Cholesterol-free media + simvastatin (0.04 μM) ([1]; cholesterol-free media with simvastatin 0.04 μM, FDA drug library screen (TABLE 2)): 0.5554; Complete Media ([1]; complete media, FDA drug library screen (TABLE 2)): 0.5244; Difference ([1]; complete media minus cholesterol-free media + simvastatin (0.04 μM), […]): −0.03; Difference [2, 3]: −0.09; Cholesterol-free [2, 19]: 0.6484; Complete [2, 20]: 0.5605"
CCOC(=O)[C@H](CCc1ccccc1)N[C@H]1CCc2ccccc2N(CC(=O)O)C1=O [Benazepril (hydrochloride)],1.314,0.8774,–,−0.09,−0.44,1.077,0.9854,–
COc1ccc([C@@H]2Sc3ccccc3N(CCN(C)C)C(=O)[C@@H]2OC(C)=O)cc1 [Diltiazem (hydrochloride)],1.001,0.6844,–,−0.16,−0.32,1.317,1.159,–
OCCN1C[C@H](O)[C@@H](O)[C@H](O)[C@H]1CO [Miglitol],–,–,–,−0.17,–,–,–,"Cholesterol-free media + simvastatin (0.04 μM) [1, 11]: 1.367; Complete Media ([1]; drug in complete media): 1.199; Difference ([2]; Complete minus Cholesterol-free, greater than 0 enhanced anti-cancer activity, about 0 neutral, below 0 antagonist): −0.11; Cholesterol-free [2, 19]: 0.916; Complete [2, 20]: 0.8049"
O=C[C@H](O)[C@@H](O)[C@H](O)CO (racemic) [DL-Xylose],–,–,0.37,–,–,0.8322,1.203,"Difference [2, 13]: −0.70; Cholesterol-free [2, 14]: 1.5; Complete [2, 15]: 0.7993"
